Experimental data published in ChEMBL document CHEMBL1149432, “Evaluation of hydroxyimine as cytochrome P450-selective prodrug structure” (J Med Chem, 2006).
≈ marks a conversion by molar mass, not a printed value.

Columns and labels:
[1] = Metabolic stability by incubation with rat liver microsomes treated with Dexamethasone; type: ADME, Microsome
[2] = Chemical stability at pH 1.0; type: physicochemical; conditions: buffer
[3] = Aqueous solubility at pH 7.4
[4] = Chemical stability at pH 5.0; type: physicochemical; conditions: buffer
[5] = Chemical stability in 80% human serum (pH 7.4); type: physicochemical
[6] = Metabolic stability by incubation with rat liver microsomes; type: ADME, Microsome
[7] = Metabolic stability by incubation with rat liver microsomes treated with 3-methylcholanthrene; type: ADME, Microsome; conditions: 3-methylcholanthrene-treated
[8] = Metabolic stability by incubation with human liver microsomes; type: ADME, Microsome
[9] = Metabolic stability by incubation with rat liver microsomes treated with Phenobarbital; type: ADME, Microsome
[10] = Aqueous solubility at pH 5.0
[11] = Chemical stability at pH 9.0; type: physicochemical; conditions: buffer
[12] = Chemical stability at pH 7.4; type: physicochemical; conditions: buffer
[13] = Half life in rat urine at 37 °C; conditions: in vitro
[14] = Distribution coefficient at pH 7.4, log D; conditions: octanol/water
[15] = Distribution coefficient at pH 5.0, log D; conditions: octanol/water
[16] = Chemical stability at pH 3.0; type: physicochemical; conditions: buffer
[17] = biological target: T1, CYP2B6 (Homo sapiens, UniProt P20813); assay: Binding constant for compound binding to CYP2B6; type: ADME
T1 sequence (P20813 whole entry): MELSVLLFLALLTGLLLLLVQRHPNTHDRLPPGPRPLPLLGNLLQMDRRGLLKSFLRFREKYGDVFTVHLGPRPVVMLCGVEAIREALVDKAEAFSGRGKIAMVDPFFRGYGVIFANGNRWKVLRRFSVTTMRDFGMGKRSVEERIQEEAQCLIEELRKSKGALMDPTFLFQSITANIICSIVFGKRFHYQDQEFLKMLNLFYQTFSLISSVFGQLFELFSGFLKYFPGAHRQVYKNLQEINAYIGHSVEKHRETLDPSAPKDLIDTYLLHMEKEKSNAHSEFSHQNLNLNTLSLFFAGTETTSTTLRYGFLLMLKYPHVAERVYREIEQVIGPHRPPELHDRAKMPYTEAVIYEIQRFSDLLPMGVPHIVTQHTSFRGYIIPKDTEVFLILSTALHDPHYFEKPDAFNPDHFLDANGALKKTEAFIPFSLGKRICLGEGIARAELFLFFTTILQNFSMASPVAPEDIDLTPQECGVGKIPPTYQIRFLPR

Row | half-life [1] [min] | half-life [2] [min] | solubility ([3]; buffer) [µg/mL] | T1/2 [4] | half-life [5] [days] | half-life [6] [days] | half-life [7] [days] | half-life [8] [min] | half-life [9] [min] | solubility [10] [µg/mL] | T1/2 [11] | T1/2 [12] | half-life [13] [days] | logD [14] | half-life [4] [min] | logD [15] | half-life [16] [min] | Km [17] [µM] | half-life [12] [days] | solubility ([3]; aqueous) [µg/mL] | Structure (SMILES)
1 | 4320 | 360 | 116000 (≈ 431000 µM) | Not Active | 33.2 | 6.96 | 4.17 | 5020 | 5040 | 1800 (≈ 6680 µM) | Not Active | Not Active | – | – | – | – | – | – | – | – | CC(C(=O)O)c1cccc(/C(=N\O)c2ccccc2)c1 (stereo not given)
2 | 46 | 6 | 2 (≈ 8.22 µM) | – | 24.6 | 0.0403 | 0.00139 | 51 | 28 | 3 (≈ 12.3 µM) | Not Active | – | 2.88 | 3.6 | 980 | 3.6 | 11 | 70 | 30 | – | COc1ccc2cc(CC/C(C)=N/O)ccc2c1
3 | – | – | – | – | – | – | – | – | – | – | – | – | – | 0.008 | – | 2.1 | – | – | – | – | CC(C(=O)O)c1cccc(C(=O)c2ccccc2)c1 (stereo not given) [KETOPROFEN]
4 | – | – | – | – | – | – | – | – | – | 6.4 (≈ 28 µM) | – | – | – | 3.3 | – | 3.2 | – | – | – | 4.3 (≈ 18.8 µM) | COc1ccc2cc(CCC(C)=O)ccc2c1 [NABUMETONE]
